Measurements reported in patent publication US6872805B2 (Bristol-Myers Squibb Company, priority 2000, dated 2005).

How the values were obtained:
[1] = target: HCV NS3/4A protease complex (Hepatitis C virus genotype 1a, UniProt P27958, C1454S/C1711G); test: Recombinant HCV NS3/4A protease complex FRET peptide assay (strain not stated); type: biochemical; details: IC50, NS3/4A protease enzyme assay, strain not stated; activity ranges
From the text: The purpose of this in vitro assay was to measure the inhibition of HCV NS3 protease complexes, derived from the BMS, H77C or J416S strains, as described below, by compounds of the present invention.
Serum from an HCV-infected patient was obtained from Dr. T. Wright, San Francisco Hospital. An engineered full-length cDNA template of the HCV genome (BMS strain) was constructed from DNA fragments obtained by reverse transcription-PCR (RT-PCR) of serum RNA and using primers selected on the basis of homology between other genotype 1a strains. […] The infectious clones, H77C (1a genotype) and J4L6S (1b genotype) were obtained from R. Purcell (NIH) and the sequences are published in genebank (AAB67036, see Yanagi, M., Purcell, R. H., Emerson, S. U. and Bukh, J. Proc. Natl. Acad. Sci. U.S.A. 94(16),8738-8743 (1997); AF054247, see Yanagi, M., St Claire, M., Shapiro, M., Emerson, S. U., Purcell, R. H. and Bukh, J, Virology 244 (1), 161-172. (1998)).
The BMS, H77C and J4L6S strains were used for production of recombinant NS3/4A protease complexes. DNA encoding the recombinant HCV NS3/4A protease complex (amino acid 1027 to 1711) for these strains were manipulated as described by P. Gallinari et al. (see Gallinari P, Paolini C, Brennan D, Nardi C, Steinkuhler C, De Francesco R. Biochemistry. 38(17):5620-32, (1999)). Briefly, a three-lysine solubilizing tail was added at the 3′-end of the NS4A coding region. The cysteine in the P1 position of the NS4A-NS4B cleavage site (amino acid 1711) was changed to a glycine to avoid the proteolytic cleavage of the lysine tag. Furthermore, a cysteine to serine mutation was introduced by PCR at amino acid position 1454 to prevent the autolytic cleavage in the NS3 helicase domain. The variant DNA fragment was cloned in the pET21b bacterial expression vector and the NS3/4A complex was expressed in E. coli BL21 (DE3) following the protocol described by P. Gallinari et al. (see Gallinari P, Brennan D, Nardi C, Brunetti M, Tomei L, Steinkuhler C, De Francesco R., J Virol. 72(8):6758-69 (1998)) with modifications. Briefly, NS3/4A expression was induced with 0.5 mM IPTG for 22 hr at 20° C. […] The cells were resuspended in lysis buffer (10 mL/g) consisting of 25 mM HEPES, pH 7.5, 20% glycerol, 500 mM NaCl, 0.5% Triton-X100, 1 ug/ml lysozyme, 5 mM MgCl2, 1 ug/ml DNaseI 5 mM β-Mercaptoethanol (βME), Protease inhibitor—EDTA free, homogenized and incubated for 20 mins at 4° C. The homogenate was sonicated and clarified by ultra-centrifugation at 235000 g for 1 hr at 4° C. Imidazole was added to the supernatant to a final concentration of 15 mM and the pH adjusted to 8.0. The crude protein extract was loaded on a Ni-NTA column pre-equilibrated with buffer B (25 mM HEPES, pH 8.0, 20% glycerol, 500 mM NaCl, 0.5% Triton-X100, 15 mM imidazole, 5 mM βME). The sample was loaded at a flow rate of 1 mL/min. The column was washed with 15 column volumes of buffer C (same as buffer B except with 0.2% Triton-X100). The protein was eluted with 5 column volumes of 200 mM Imidazole in buffer.
NS3/4A protease complex-containing fractions were pooled and loaded on a desalting column Superdex-S200 pre-equilibrated with buffer D (25 mM HEPES, pH 7.5, 20% glycerol, 300 mM NaCl, 0.2% Triton-X100, 10 mM βME). Sample was loaded at a flow rate of 1 mL/min. NS3/4A protease complex-containing fractions were pooled and concentrated to approximately 0.5 mg/ml.

[2] = tested on: HCV replicon in Huh7 cells; test: HCV replicon cell-based assay; design: species or system HCV strain 1B; details: Hepatitis C virus, Huh-7, 96 h; HCV replicon, Huh7 cells, 4 days; activity ranges; read-out: EC50
From the text: An HCV replicon whole cell system was established as described by Lohmann V, Korner F, Koch J, Herian U, Theilmann L, Bartenschlager R., Science 285(5424):110-3 (1999). This system enabled us to evaluate the effects of our HCV Protease compounds on HCV RNA replication. Briefly, using the HCV strain 1B sequence described in the Lohmann paper (Assession number:AJ238799), an HCV cDNA was generated encoding the 5′ internal ribosome entry site (IRES), the neo gene, the EMCV-IRES and the HCV nonstructural proteins, NS3-NS5B, and 3′ NTR. […] Resulting cell lines were characterized for positive and negative RNA production and protein production over time.
Huh7 cells, constitutively expressing the HCV replicon, were grown in DMEM containing 10% FCS (Fetal calf serum) and 1 mg/ml G418 (Gibco-BRL). Cells were seeded the night before (1.5×10^4 cells/well) in 96-well tissue-culture sterile plates. Compound was prepared in DMEM containing 4% FCS, 1:100 Penicillin/Streptomysin, 1:100 L-glutamine and 0.5% DMSO. Compound/DMSO mixes were added to the cells and incubated for 4 days at 37° C. After 4 days, cells were either lyzed using the Rneasy kit (Qiagen) to isolate and purify RNA for an EC50 determination or assessed for cytotoxicity using alamar Blue (Trek Diagnotstic Systems) for a CC50 reading. For an EC50 determination, purified total RNA was normalized using RiboGreen (Jones L J, Yue S T, Cheung C Y, Singer V L, Anal. Chem., 265(2):368-74 (1998)) and relative quantitation of HCV RNA expression assessed using the Taqmann procedure (Kolykhalov A A, Mihalik K, Feinstone S M, Rice C M, Journal of Virology 74, 2046-2051 (2000)). Briefly, RNA made to a volume of 5 μl (≦1 ng) was added to a 20 μl Ready-Mix containing the following: 5×EZ rTth buffer, 3 mM MnOAc2, 3 mM dNTPs, 200 nM forward primer, 600 nM reverse primer, 100 nM probe and rTth polymerase. Samples containing known concentrations of HCV RNA transcript were run as standards. Using the following cycling protocol (95° C., 1 min; 60° C., 0.5 min; 95° C., 2 min; 40 cycles of 94° C., 0.5 min, 60° C.; 1 min; and completing with 60° C., 10 min), HCV RNA expression was quantitated as described in the Perkin Elmer manual. The toxicity of compound (CC50) was determined by adding 1/10th volume of alamar Blue to the media incubating the cells. After 4 hr, the fluorescence signal from each well was read, with an excitation wavelength at 530 nm and an emission wavelength of 580 nm, using the Cytofluor Series 4000 (Perspective Biosystems).

Sequence of HCV NS3/4A protease complex (P27958 1027-1711, stated change not applied): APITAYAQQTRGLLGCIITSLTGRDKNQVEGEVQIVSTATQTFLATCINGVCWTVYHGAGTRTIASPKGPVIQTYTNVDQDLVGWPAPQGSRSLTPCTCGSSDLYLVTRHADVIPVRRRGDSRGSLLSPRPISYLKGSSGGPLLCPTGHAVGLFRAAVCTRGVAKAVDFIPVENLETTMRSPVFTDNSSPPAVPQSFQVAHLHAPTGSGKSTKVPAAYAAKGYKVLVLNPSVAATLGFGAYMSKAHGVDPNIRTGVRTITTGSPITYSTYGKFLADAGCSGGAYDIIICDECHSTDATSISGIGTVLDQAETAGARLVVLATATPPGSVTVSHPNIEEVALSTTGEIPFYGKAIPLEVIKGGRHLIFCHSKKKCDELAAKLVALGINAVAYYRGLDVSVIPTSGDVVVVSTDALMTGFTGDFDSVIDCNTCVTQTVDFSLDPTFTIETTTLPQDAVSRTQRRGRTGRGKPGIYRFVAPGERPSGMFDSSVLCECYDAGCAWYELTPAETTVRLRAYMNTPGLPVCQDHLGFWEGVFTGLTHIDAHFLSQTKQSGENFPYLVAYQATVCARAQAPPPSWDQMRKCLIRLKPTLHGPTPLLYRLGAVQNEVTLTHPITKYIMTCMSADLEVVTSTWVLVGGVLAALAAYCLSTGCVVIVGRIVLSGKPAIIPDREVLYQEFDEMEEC
Sequence of HCV NS3/4A protease complex (P27958 1027-1711, stated change not applied): as above

Row | Structure (SMILES) | IC50 [1] | EC50 [2]
1 | C=C[C@@H]1C[C@]1(NC(=O)C1CC(Oc2cc(-c3ccccc3)nc3cc(OC)ccc23)CN1C(=O)[C@@H](NC(=O)OCc1ccccc1)C(C)(C)C)C(=O)NS(=O)(=O)C1CC1 (stereo partly drawn) [Compound 114, {1S-[2S-(1R-cyclopropanesulfonylaminocarbonyl-2S-vinyl-cyclopropylcarbamoyl)-4R-(7-methoxy-2-phenyl-quinolin-4-yloxy)-pyrrolidine-1-carbonyl]-2,2-dimethyl-propyl}-carbamic acid benzyl ester] | < 50 nM | < 50 nM
2 | C=C1C[C@]1(NC(=O)[C@@H]1C[C@@H](Oc2cc(-c3ccccc3)nc3cc(OC)ccc23)CN1C(=O)C(NC(=O)OC(C)(C)C)C(C)(C)C)C(=O)NS(=O)(=O)c1ccccc1C(F)(F)F (stereo partly drawn) [Compound 47] | < 50 nM | < 500 nM
3 | C=CC1CC1(NC(=O)[C@@H]1C[C@@H](Oc2cc(-c3ccccc3)nc3cc(OC)ccc23)CN1C(=O)[C@@H](NC(=O)OC(C)(C)C)C(C)(C)C)C(=O)NS(C)(=O)=O (stereo partly drawn) [Compound 86] | < 50 nM | < 500 nM
4 | C=COC(=O)N[C@H](C(=O)N1C[C@H](Oc2cc(-c3ccccc3)nc3cc(OC)ccc23)CC1C(=O)N[C@]1(C(=O)NS(=O)(=O)C2CC2)C[C@H]1C=C)C(C)(C)C (stereo partly drawn) [Compound 123, {1S-[2S-(1R-cyclopropanesulfonylaminocarbonyl-2S-vinyl-cyclopropylcarbamoyl)-4R-(7-methoxy-2-phenyl-quinolin-4-yloxy)-pyrrolidine-1-carbonyl]-2,2-dimethyl-propyl}-carbamic acid vinyl ester] | < 50 nM | < 50 nM
5 | C=C[C@@H]1C[C@]1(NC(=O)C1CC(Oc2cc(-c3ccccc3)nc3cc(OC)ccc23)CN1C(=O)[C@@H](NS(C)(=O)=O)C(C)(C)C)C(=O)NS(=O)(=O)C1CC1 (stereo partly drawn) [Compound 117, 1-(2S-methanesulfonylamino-3,3-dimethyl-butyryl)-4R-(7-methoxy-2-phenyl-quinolin-4-yloxy)-pyrrolidine-2S-carboxylic acid (1R-cyclopropanesulfonylamino-carbonyl-2S-vinyl-cyclopropyl)-amide] | < 50 nM | < 500 nM
6 | C=CC1C[C@]1(NC(=O)[C@@H]1C[C@@H](Oc2cc(-c3ccccc3)nc3cc(OC)ccc23)CN1C(=O)[C@@H](NC(=O)OC(C)(C)C)C(C)C)C(=O)NS(=O)(=O)C(C)C (stereo partly drawn) [Compound 32] | < 50 nM | < 50 nM
7 | C=C[C@@H]1C[C@]1(NC(=O)C1C[C@@H](Oc2cc(-c3ccccc3)nc3cc(OC)ccc23)CN1C(=O)[C@@H](Nc1ccccc1[N+](=O)[O-])C(C)(C)C)C(=O)NS(=O)(=O)C1CC1 (stereo partly drawn) [Compound 128, 1-[3,3-dimethyl-2S-(2-nitrophenylamino)-butyryl]-4R-(7-methoxy-2-phenyl-quinolin-4-yloxy)-pyrrolidine-2S-carboxylic acid (1R-cyclopropanesulfonyl-aminocarbonyl-2S-vinylcyclopropyl)amide] | < 5000 nM | < 5000 nM
8 | C=CC1C[C@]1(NC(=O)[C@@H]1C[C@@H](Oc2cc(-c3ccccc3)nc3cc(OC)ccc23)CN1C(=O)[C@@H](NC(=O)OC(C)(C)C)C(C)CC)C(=O)NS(=O)(=O)C1CC1 (stereo partly drawn) [Compound 24] | < 500 nM | < 500 nM
9 | C=CC1C[C@]1(NC(=O)[C@@H]1C[C@@H](Oc2cc(-c3ccccc3)nc3cc(OC)ccc23)CN1C(=O)[C@@H](NC(=O)OC(C)(C)C)C1CCCC1)C(=O)NS(=O)(=O)C(C)C (stereo partly drawn) [Compound 30] | < 50 nM | < 50 nM
10 | C=C[C@@H]1C[C@]1(NC(=O)C1C[C@@H](Oc2cc(-c3ccccc3)nc3cc(OC)ccc23)CN1C(=O)[C@@H](NC(=O)C1(O)CC1)C(C)(C)C)C(=O)NS(=O)(=O)C1CC1 (stereo partly drawn) [Compound 111, 1-{2S-[(1-hydroxy-cyclopropanecarbonyl)-amino]-3,3-dimethyl-butyryl}-4R-(7-methoxy-2-phenyl-quinolin-4-yloxy)pyrrolidine-2S-carboxylic acid (1R-cyclopropanesulfonylaminocarbonyl-2S-vinylcyclopropyl)amide] | < 50 nM | < 5000 nM
11 | C=C1C[C@]1(NC(=O)[C@@H]1C[C@@H](Oc2cc(-c3ccccc3)nc3cc(OC)ccc23)CN1C(=O)C(NC(=O)OC(C)(C)C)C(C)(C)C)C(=O)NS(=O)(=O)c1ccccc1F (stereo partly drawn) [Compound 54] | < 50 nM | < 500 nM
12 | C=C1C[C@]1(NC(=O)[C@@H]1C[C@@H](Oc2cc(-c3ccccc3)nc3cc(OC)ccc23)CN1C(=O)C(NC(=O)OC(C)(C)C)C(C)(C)C)C(=O)NS(=O)(=O)c1cccc(C(F)(F)F)c1 (stereo partly drawn) [Compound 48] | < 50 nM | < 500 nM
13 | C=CC1C[C@]1(NC(=O)[C@@H]1C[C@@H](Oc2cc(-c3ccccc3)nc3cc(OC)ccc23)CN1C(=O)[C@@H](NC(=O)OC(C)(C)C)C(C)(C)C)C(=O)N[S+]([O-])C(C)(C)C (stereo partly drawn) [Compound 61] | < 500 nM | < 5000 nM
14 | CCC(C)[C@H](NC(=O)OC(C)(C)C)C(=O)N1C[C@H](Oc2cc(-c3ccccc3)nc3cc(OC)ccc23)C[C@H]1C(=O)NC1(C(=O)NS(=O)(=O)C2CC2)CC12CCC2 (stereo partly drawn) [Compound 137] | < 5000 nM | < 5000 nM
15 | C=CC1C[C@]1(NC(=O)[C@@H]1C[C@@H](Oc2cc(-c3ccccc3)nc3cc(OC)ccc23)CN1C(=O)[C@@H](NC(=O)OC(C)(C)C)C(C)(C)C)C(=O)NS(=O)(=O)c1ccc(Br)cc1 (stereo partly drawn) [Compound 17] | < 500 nM | < 500 nM
